Experimental data taken from publication PMC3307806 (Molecular Pharmaceutics, 2012).
“Also recorded” adds a separate entry of the source.

How the values were obtained:
[1] = system: P-gp at the human BBB; conditions: human PET study; cited from earlier work
[2] = Pseudo-steady-state blood CsA and plasma Lop/dLop concentrations in rats; conditions: 60 min; Student's t-test
[3] = system: P-gp (mdr1a/b); conditions: 7; cited from earlier work
[4] = molecular target: P-gp at the rat BBB (Rattus norvegicus, UniProt Q6PSM0); conditions: absence of CsA, 60 min, n=5
P-gp at the rat BBB, sequence (Q6PSM0 1-1272): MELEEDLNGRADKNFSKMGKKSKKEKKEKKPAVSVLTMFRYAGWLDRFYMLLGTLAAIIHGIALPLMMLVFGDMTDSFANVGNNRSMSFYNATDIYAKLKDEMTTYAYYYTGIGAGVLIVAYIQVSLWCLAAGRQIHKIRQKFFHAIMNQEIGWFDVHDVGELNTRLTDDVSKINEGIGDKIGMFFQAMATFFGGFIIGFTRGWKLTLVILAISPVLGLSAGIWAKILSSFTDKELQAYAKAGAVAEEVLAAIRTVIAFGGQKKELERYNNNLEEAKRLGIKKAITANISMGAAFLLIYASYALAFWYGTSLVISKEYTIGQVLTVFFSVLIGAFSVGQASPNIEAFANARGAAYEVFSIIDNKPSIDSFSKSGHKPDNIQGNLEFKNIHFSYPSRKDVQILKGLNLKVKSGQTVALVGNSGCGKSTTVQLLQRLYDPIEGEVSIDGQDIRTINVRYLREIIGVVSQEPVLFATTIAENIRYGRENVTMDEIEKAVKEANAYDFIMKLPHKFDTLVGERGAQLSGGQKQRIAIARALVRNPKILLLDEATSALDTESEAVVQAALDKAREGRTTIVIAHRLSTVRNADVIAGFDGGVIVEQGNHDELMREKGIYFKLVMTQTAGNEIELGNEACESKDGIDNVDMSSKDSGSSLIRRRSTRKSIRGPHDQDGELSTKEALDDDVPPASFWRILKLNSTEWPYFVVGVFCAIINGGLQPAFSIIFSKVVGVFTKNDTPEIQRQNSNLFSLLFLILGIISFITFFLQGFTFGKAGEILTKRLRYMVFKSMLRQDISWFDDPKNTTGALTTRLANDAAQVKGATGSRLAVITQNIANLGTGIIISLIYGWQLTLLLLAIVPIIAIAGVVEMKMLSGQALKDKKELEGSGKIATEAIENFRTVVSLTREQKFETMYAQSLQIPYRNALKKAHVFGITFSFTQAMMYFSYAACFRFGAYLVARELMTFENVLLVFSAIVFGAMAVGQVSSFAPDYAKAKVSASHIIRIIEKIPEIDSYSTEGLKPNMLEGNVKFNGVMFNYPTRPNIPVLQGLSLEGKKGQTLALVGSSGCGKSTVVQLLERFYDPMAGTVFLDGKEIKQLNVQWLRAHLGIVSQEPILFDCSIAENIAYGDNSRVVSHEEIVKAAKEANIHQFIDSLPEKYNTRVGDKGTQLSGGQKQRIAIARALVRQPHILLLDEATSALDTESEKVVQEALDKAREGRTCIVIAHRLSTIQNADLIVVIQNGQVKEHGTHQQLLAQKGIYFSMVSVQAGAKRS

[5] = system: P-gp; conditions: verapamil-bodipy or prazosin-bodipy as probe substrate; cited from earlier work

## CN([11CH3])C(=O)C(CCN1CCC(O)(c2ccc(Cl)cc2)CC1)(c1ccccc1)c1ccccc1 [11C-Lop]
[1]
  share of radioactivity in the plasma: 76%

## CN(C)C(=O)C(CCN1CCC(O)(c2ccc(Cl)cc2)CC1)(c1ccccc1)c1ccccc1 [Lop, Loperamide]
[2]
  effect of the presence of CsA on pseudo-steady-state plasma concentration: did not significantly affect; also recorded: not significantly affected

## Cc1c(O)cccc1C(=O)N[C@@H](CSc1ccccc1)[C@H](O)CN1C[C@H]2CCCC[C@H]2C[C@H]1C(=O)NC(C)(C)C [Nelfinavir]
[3]
  increase in brain:blood concentration ratio in mdr1a/b(-/-) vs. wild-type mice: 3400%

## CNC(=O)C(CCN1CCC(O)(c2ccc(Cl)cc2)CC1)(c1ccccc1)c1ccccc1 [dLop, N-desmethyl Loperamide]
[4]
  brain:plasma concentrations (ratio) corrected for vascular content: 0.11 ± 0.04
[4]; not corrected for vascular content
  brain:plasma concentrations (ratio): 0.14 ± 0.04
[2]
  effect of the presence of CsA on pseudo-steady-state plasma concentration: did not significantly affect; also recorded: not significantly affected

## CCC(C)n1ncn(-c2ccc(N3CCN(c4ccc(OCC5COC(Cn6cncn6)(c6ccc(Cl)cc6Cl)O5)cc4)CC3)cc2)c1=O (centres unmarked) [itraconazole]
[5]
  difference in potency (EC50) to inhibit P-gp depending on the probe substrate: 10 fold

## C=C[C@H]1C[N@@]2CC[C@H]1C[C@@H]2[C@@H](O)c1ccnc2ccc(OC)cc12 [quindine]
[5]
  difference in potency (EC50) to inhibit P-gp depending on the probe substrate: 20 fold
